Where no end group is shown, it is not given here.
Tested on: mouse-adapted EV71 (mEV71)
Experiment: mEV71 infection model in 6-day-old ICR mice
Type: in vivo
Method: Fig 7 LL-18 inhibits mEV71 infection in vivo. (A) mEV71 was pre-treated with PBS or LL-18 and used to infect 6-day old ICR mice. The survival rate of mice infected with the mEV71 virus with or without LL-18 was recorded. (B) Mice infected with the mEV71 virus with or without LL-18 pre-treatment were sacrificed 1 day post infection (d.p.i.) and viral titers from brain and muscle tissues were determined. ***, P<0.001. (C) H&E staining of muscle tissue from mice infected with the mEV71 virus with or without LL-18. Blue arrows indicate infiltrated neutrophils. Bar, 20μm.
To prepare the mouse-adapted EV71 strain, the parental EV71 virus was intraperitoneally (i.p.) inoculated into 3-day-old ICR mice. Virus was then isolated from the brain tissue and inoculated into RD cells to amplify virus. […] 1×10^9 PFU/ml mEV71 was then incubated with an equal volume of PBS or LL-18 (20 mg/kg) for one hour, and used to infect 6-day-old ICR newborn mice intraperitoneally. Mice were monitored daily to record survival rate. Meanwhile, brain and muscle tissues were collected 1-day post infection for viral titration or H&E staining.
Supplementary file ppat.1011967.s005.tif: S5 Fig LL-18 inhibits mEV71 infection in vivo. (A) 6-day-old ICR mice were infected with parental EV71 or mouse-adapted virus (mEV71) and the mice survival rate was determined. (B) RD cells infected with mEV71 pre-incubated with PBS or LL-18 for 1 hr were determined for virus titer 24 h.p.i. ***, P<0.001. (C) ICR mice infected with mEV71 or mEV71 pre-incubated with the indicated amount of LL-18 were sacrificed at 1 d.p.i. and viral titers from muscle were determined. ns, not significant; ***, P<0.001. (TIF) Click here for additional data file.

FRKSKEKIGKLFKRIVQRILDFLRNLV [LL-18]
survival rate of infected suckling mice (6-day-old ICR mice, mEV71 pre-incubated 1 hour with LL-18 (20mg/kg), intraperitoneal): could increase the sucking mouse survival rate
viral loads of brain and muscle (6-day-old ICR mice, mEV71 pre-incubated with LL-18 (20mg/kg), i.p., 1 d.p.i): significantly decreased the viral loads in both brain and muscle
inflammatory cell infiltration in muscle (H&E histology) (6-day-old ICR mice, mEV71 with LL-18 (20mg/kg)): improved with the administration of LL-18
viral load in muscle, dose finding (ICR mice, mEV71 pre-incubated with 20 mg/kg LL-18, 1 d.p.i. (S5C Fig)): could significantly reduce the viral load

— article PMC10846744, “Cathelicidin peptide analogues inhibit EV71 infection through blocking viral entry and uncoating” (PLOS Pathogens, 2024)
